According to PMC6705210, “Inhibition of HTLV-1 Infection by HIV-1 First- and Second-Generation Integrase Strand Transfer Inhibitors” (Frontiers in Microbiology, 2019):
Like-named read-outs stand apart in the source and are kept apart here.

Assays:
[1] = Cellular toxicity in Jurkat cells (live dead stain Hoechst 33258, FACS); type: cell-based; conditions: human
Procedure: MT-2 cells were resuspended to a concentration of 2 × 10^6 cells/mL and exposed to a sub-lethal dose of gamma-irradiation (40,000 Rad). Cells were resuspended in serum-free RPMI to a concentration of 2 × 10^6 cells/mL in the presence of drug, and 0.5 × 10^6 of each cell type were co-cultured for 18 h. Following co-culture, cells were washed in PBS and resuspended in 1 mL of depletion buffer (0.1% FBS, 2 mM EGTA, PBS) before gentle tumbling (1 h, 4°C) with 25 μL of anti-CD25 + magnetic beads (DynaBeads, Thermo Fisher Scientific) to deplete MT-2 cells. Following depletion, the unbound fraction, i.e., Jurkat cells were maintained in RPMI with the drug present for 16 days before genomic DNA harvest (DNeasy kit, Qiagen). All experiments were done in triplicate. Depletion of MT-2 cells was verified by FACS. For cellular toxicity measurements, Jurkat cells were grown in the presence of the INSTIs as described above. Viability was measured by live dead stain (Hoechst 33258) and analyzed by FACS.

[2] = molecular target: T1, HTLV-1 integrase (Human T-cell leukemia virus 1, UniProt P03362); assay: In vitro HTLV-1 integrase strand transfer assay (concerted integration, agarose gel densitometry); type: biochemical; conditions: for Inhibition of enzymatic activity Hill slope: dose-response fit of strand transfer inhibition
T1 construct: Full-length wild type HTLV-1 IN was recombinantly expressed, purified, and characterized; SUMO (pET28a-SUMO fusion) (N); made in house
T1 sequence (P03362 1168-1462): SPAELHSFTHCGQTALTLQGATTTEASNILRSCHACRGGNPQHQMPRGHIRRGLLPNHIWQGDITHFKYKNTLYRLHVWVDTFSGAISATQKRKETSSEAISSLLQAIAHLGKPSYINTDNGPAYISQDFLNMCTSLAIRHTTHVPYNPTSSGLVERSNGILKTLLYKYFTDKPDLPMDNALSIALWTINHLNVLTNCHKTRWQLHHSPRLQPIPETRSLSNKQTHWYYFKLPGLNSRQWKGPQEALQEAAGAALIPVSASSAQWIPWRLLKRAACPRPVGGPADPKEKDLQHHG
Procedure: Donor DNA mimicking the U5 3′-processed LTR ends of the viral DNA copy was prepared by annealing oligonucleotides (Supplementary Table S1), in 100 mM Tris pH 7.4, 400 mM NaCl. The optimized conditions for the strand transfer reactions are as follows: a solution was prepared containing 73 mM PIPES pH 6.0, 175 mM NaCl, 16.7 mM MgCl2, 5.8 μM ZnCl2, 12.8 mM DTT, 0.53 μM donor DNA, and 0.8 μM HTLV-1 integrase. Following a 30 min room temperature incubation in the presence or absence of INSTIs in the final concentration of 5% DMSO, the reaction was initiated by addition of 300 ng of pGEM-9Zf(−) supercoiled plasmid DNA. The total volume of each reaction was 150 μL. Reactions were carried out at 37°C for 30 min and were processed as described previously ([Maertens et al., 2010]). All reactions were performed in these conditions unless otherwise stated in the Figure legend. Reactions that included B′γ were done with equimolar ratio of IN to B′γ. The precipitated DNA was resuspended in agarose loading dye and analyzed on a 1.5% agarose gel run in 1× TAE buffer and stained with ethidium bromide. Bands corresponding to products of concerted integration were quantified by densitometry in ImageLab 4.1 (Bio-Rad). All experiments were done in triplicate.
Quantified data points were fitted to a dose-response curve in Prism 7. Cumulative standard deviation for each drug was calculated as an average of the upper limit and lower limit values: […]

[3] = test system: HTLV-1; assay: HTLV-1 infection of Jurkat cells by cell-to-cell transmission (co-culture with irradiated MT-2), proviral load by qPCR; type: cell-based, Human T-cell lymphotropic virus type 1; conditions: for EC50: read-out: Antiviral activity EC50 (HTLV-1)
Procedure: Jurkat cells were pre-treated with increasing amounts of INSTI (0.2 pM–2 μM in DMSO), or the carrier (DMSO) for 24 h. MT-2 cells were resuspended to a concentration of 2 × 10^6 cells/mL and exposed to a sub-lethal dose of gamma-irradiation (40,000 Rad). Cells were resuspended in serum-free RPMI to a concentration of 2 × 10^6 cells/mL in the presence of drug, and 0.5 × 10^6 of each cell type were co-cultured for 18 h. Following co-culture, cells were washed in PBS and resuspended in 1 mL of depletion buffer (0.1% FBS, 2 mM EGTA, PBS) before gentle tumbling (1 h, 4°C) with 25 μL of anti-CD25 + magnetic beads (DynaBeads, Thermo Fisher Scientific) to deplete MT-2 cells. Following depletion, the unbound fraction, i.e., Jurkat cells were maintained in RPMI with the drug present for 16 days before genomic DNA harvest (DNeasy kit, Qiagen). All experiments were done in triplicate. Depletion of MT-2 cells was verified by FACS. For cellular toxicity measurements, Jurkat cells were grown in the presence of the INSTIs as described above. Viability was measured by live dead stain (Hoechst 33258) and analyzed by FACS.
Proviral load (PVL) was estimated as previously described ([Manivannan et al., 2016]; [Rowan et al., 2016]). Genomic DNA concentrations were measured by nanospectroscopy (DeNovix), and samples were diluted to 5 ng/μL for real-time PCR (qPCR) analysis. qPCR reactions were performed for both the HTLV-1 tax gene and the human GAPDH gene (Supplementary Table S2). Gene copy numbers were determined by comparison to standard curves generated from a clone with a known single integration site (clone 11.50, courtesy of Prof. Charles Bangham). PVL was calculated by comparison of tax and GAPDH copy numbers as a fraction, multiplied by 100 to generate a percentile value assuming a single copy of tax and two copies of GAPDH per infected cell ([Lairmore et al., 1989]). Alu-PCR was performed as described previously ([Alais et al., 2015]), with the modification that the nested PCR was also run as a qPCR using SYBR-green (primers used are shown in Supplementary Table S2). Integrated provirus copy numbers were normalized to GAPDH, and DMSO treated HTLV-1 infected Jurkat cells were arbitrarily set to 100%. Averages and standard deviations of three independent experiments are shown. P-values were calculated using the student’s t-test.

[4] = test system: HIV-1; conditions: read-out: HIV-1 antiviral activity EC50, cited from earlier work
[5] = test system: HTLV-1; parameters: method as in Pasquier et al., 2018; conditions: ref Pasquier et al., 2018, cited from earlier work
[6] = HTLV-1 IN 0.8 μM, concerted integration product
[7] = Jurkat cells co-cultured with irradiated MT-2, PVL 16 days post-infection
[8] = Primate T-lymphotropic virus 1, Jurkat, light or radiation study, 384 h, Jurkat cells co-cultured with irradiated MT-2, PVL 16 days post-infection
[9] = HTLV-1 IN 0.8 μM, concerted integration product, triplicate, read-out: Inhibition of enzymatic activity IC50

Row | SMILES | Inhibition of enzymatic activity IC95 [2, 6] [µM] | Inhibition of enzymatic activity Hill slope [2] | Antiviral activity EC95 (HTLV-1) [3, 7] [µM] | IC50 [2, 9] [µM] | EC50 ([4]; ref a) [µM] | other results
1 | COc1cc2c(cc1Cc1cccc(Cl)c1F)c(=O)c(C(=O)O)cn2[C@H](CO)C(C)C [Elvitegravir, elvitegravir] | 1.9 ± 0.304 | 1.0 | 1.27 ± 0.735 |  |  | CC50 [1]: > 20 µM; IC50 [2]: 0.1 ± 0.016 µM; EC50 [3, 8]: 0.00957 ± 0.00554 µM
2 | O=C(NCc1c(F)cc(F)cc1F)c1cn2c(c(O)c1=O)C(=O)N1[C@H]3CC[C@H](C3)O[C@@H]1C2 [Bictegravir, bictegravir] | 2.09 ± 0.437 | 1.2 | 0.0318 ± 0.0182 | 0.18 ± 0.029 | 0.0016 ± 0.0004 | CC50 [1]: > 20 µM; activity relative to elvitegravir ([2]; in vitro assays, versus elvitegravir): ~55%; fold higher activity than raltegravir or elvitegravir, respectively ([3]; HTLV-1 cell-to-cell infection model, versus raltegravir or elvitegravir): 20–30 fold; EC50 [3, 7]: 0.000302 ± 0.000173 µM; EC50 [3, 8]: 0.0003 ± 0.00017 µM; more potent than TDF in blocking HTLV-1 infection ([3]; versus TDF): ~60
3 | Cn1c(N2CCCCS2(=O)=O)nc(C(=O)NCc2ccc(F)cc2)c(O)c1=O [BMS-707035] | 12.2 ± 2.90 | 0.83 |  | 0.35 ± 0.074 |  | EC50 ([4]; ref c): 0.0025 µM
4 | Cc1cn([C@H]2C[C@H](N=[N+]=[N-])[C@@H](CO)O2)c(=O)[nH]c1=O [zidovudine] |  |  |  |  |  | inhibition of HTLV-1 infection ([5]; at 50 μM concentration): 10–20%
5 | Cc1nnc(C(=O)NC(C)(C)c2nc(C(=O)NCc3ccc(F)cc3)c(O)c(=O)n2C)o1 [Raltegravir, raltegravir] | 29.92 ± 5.75 | 0.73 | 1.02 ± 0.675 |  | 0.0094 ± 0.0014 | CC50 ([1]; Jurkat cells, read-out: CC50): > 20 µM; IC50 [2]: 0.53 ± 0.102 µM; EC50 ([3]; Primate T-lymphotropic virus 1, Jurkat, light or radiation study, 384 h): 0.00642 ± 0.00424 µM
6 | C[C@@H]1CCO[C@H]2Cn3cc(C(=O)NCc4ccc(F)cc4F)c(=O)c(O)c3C(=O)N12 [Dolutegravir, dolutegravir] | 3.02 ± 0.485 | 1.2 |  | 0.26 ± 0.059 | 0.0014 ± 0.0003 | 
7 | CC(C)OC(=O)OCOP(=O)(CO[C@H](C)Cn1cnc2c(N)ncnc21)OCOC(=O)OC(C)C.O=C(O)/C=C/C(=O)O [TDF, tenofovir disproxil fumarate] |  |  |  |  |  | HTLV-1 infection blocked ([5]; at concentrations of 10 μM): about 50%; EC50 [3, 7]: 0.0178 ± 0.00716 µM
